Source: patent publication US20080249130A1, “Gut microsomal triglyceride transport protein inhibitors” (Sirtris Pharmaceuticals, Inc., priority 2007, published 2008)

Test system: secretion of ApoB by HepG2 cells
Test: ApoB secretion inhibition assay in HepG2 cells (ApoB ELISA)
Assay type: cell-based, human
Conditions: Homo sapiens, HepG2, Table 6, assay of Example 2; read-out: IC50 ApoB Assay
Procedure: The ability of the compounds of the present invention to inhibit the secretion of ApoB can be determined using the following cell-based assay, which measures the secretion of ApoB by HepG2 cells. ApoB has two possible metabolic fates: entrance into the lipoprotein assembly pathway within the lumen of the endoplasmic reticulum (ER), or degradation in the cytoplasm by the ubiquitin-dependent proteasome. The destiny of ApoB is determined by the relative availability of individual lipids, which is controlled by MTP (Davis, Biochim. Biophys. Acta, 1999, 1440, 1-31).
HepG2 cells (ATCC, HB-8065) are seeded in 96-well plates in DMEM with 10% FBS+pen/strep at a density of 1×10^5 cells/well (100 μl /well). Twenty-four hours after seeding, the plate is aspirated and the media changed to DMEM with 1% BSA and pen/strep, and the cells are serum-starved for 24 hours. After 24 hour serum-starvation, the plate is aspirated again and the cells are then treated for 24 hours with or without compound in DMEM with 1% BSA, 0.3 mM OA (OA complexed to BSA at a 2:1 ratio) and pen/strep. The final concentration of DMSO in the assay (from compound and control) is 0.1%. After 24 hour treatment, conditioned media is collected in an empty 96-well plate.
Cellular viability is measured using the cell permeable dye, AlamarBlue™. This dye undergoes electron reduction in viable cells but not dead cells. The reduced dye product gives a fluorescent signal which can be monitored with a fluorescence plate reader (excitation 545 nm and emission 575 nm). The amount of fluorescence generated in a given well is proportional to the number of viable cells. After collection, the 96-well plate is re-fed with 100 μl media (DMEM with 10% FBS) and 10 μl Alamar Blue™ per well, incubated for 2 hours and then read in a fluorescence plate reader.
ApoB secretion from HepG2 cells is quantitated by testing the conditioned media at […] using an ApoB ELISA kit (ALerCHEK) according to the manufacturer's instructions. The ELISA assay for ApoB is performed as follows: a polyclonal antibody against human ApoB (Chemicon) is diluted 1:1000 in carbonate-bicarbonate buffer and 100 μl are added to each well of a 96-well plate (NUNC). After 5 hours incubation at room temperature, the antibody solution is removed and wells are washed four times with PBS/0.05% TweenD 20 (Cayman Chemical Co.). Non-specific sites on the plastic plate are blocked by incubating wells for 1 to 1.5 hours in a solution of 0.5% BSA and 0.1% TweenD 20 made in PBS. One hundred microliters of a 1:20 dilution of growth medium from the HepG2 cells (made in 0.004% TweenD 20/1% BSA in PBS) is added to each well and incubated for 3 hours at room temperature. Wells are aspirated and washed four times (0.05% TweenD 20 in PBS) prior to adding 100 μl of a 1:1000 dilution (5 μg/ml) of the secondary antibody, mouse anti-human ApoB (Chemicon). After 2 hours incubation at room temperature, this solution is aspirated and the wells are again washed 4 times as above. One hundred microliters of peroxidase-conjugated affinity purified goat anti-mouse IgG (H+L) (Jackson ImmunoResearch Laboratories) (1:10,000 dilution in PBS/1% BSA/0.1% TweenD 20) is then added to each well and incubated for 1 hour at room temperature. After aspirating, the wells are washed 4 times as above and 50 μl of 1-step Ultra TMB ELISA reagent (Pierce) is added to each well and incubated for 5 minutes. The reaction is stopped by the addition of 50 μl of 2 NH2SO4 and absorbance of each well is read at 450 nm.

Point of comparison: `CN(C(=O)[C@@H](NC(=O)c1nc2ccc(NC(=O)c3ccccc3-c3cn4ccsc4n3)cc2s1)c1ccccc1)C1CCCC1` [Compound 51], IC50 872 nM. Against it:
- Cc1cccc(C(=O)Nc2nc(-c3ccc(C(=O)N[C@H](C(=O)N(C)C(C)C)c4ccccc4)cc3)cs2)c1-c1ccc(C(C)C)cc1 [Compound 98] — 18-fold lower, 49.7 nM
- Cc1cccc(C(=O)NCC23CCC(C(=O)NC(C(=O)N4CCCC4)c4ccccc4)(CC2)CC3)c1-c1ccc(C(C)C)cc1 (centres unmarked) [Compound 96] — 79-fold lower, 11 nM
- CCCN(C)C(=O)[C@@H](NC(=O)c1ccc(-c2csc(NC(=O)c3ccccc3-c3ccc(C(C)C)cc3)n2)cc1)c1ccccc1 [Compound 95] — 3.8-fold lower, 228 nM
- Cc1cccc(C(=O)NCC23CCC(C(=O)N[C@H](C(=O)NCC4CC4)c4ccccc4)(CC2)CC3)c1-c1ccc(C(C)(C)C)cc1 [Compound 69] — 98-fold lower, 8.9 nM
- CN(Cc1ccc(F)cc1)C(=O)[C@@H](NC(=O)c1nc(-c2ccc(NC(=O)c3ccccc3-c3ccc(C(C)(C)C)cc3)cc2)cs1)c1ccccc1 [Compound 56, (S)-4-(4-(4′-tert-butylbiphenyl-2-ylcarboxamido)phenyl)-N-(2-((4-fluorobenzyl)(methyl)amino)-2-oxo-1-phenylethyl)thiazole-2-carboxamide] — within 1.5-fold, 846 nM
- CC(C)(C)c1ccc(-c2ccccc2C(=O)Nc2nc(-c3cccc(C(=O)N[C@H](C(=O)N4Cc5ccccc5C4)c4ccccc4)c3)cs2)cc1 [Compound 27] — 2.7-fold lower, 318 nM
- CC(C)(C)c1ccc(-c2ccccc2C(=O)NCC23CCC(C(=O)N[C@H](C(=O)N4Cc5ccccc5C4)c4ccccc4)(CC2)CC3)cc1 [Compound 22] — 3.4-fold lower, 253 nM
- COc1cccc(C(=O)NC23CCC(C(=O)N[C@H](C(=O)N4CCCC4)c4ccccc4)(CC2)CC3)c1-c1ccc(C(C)(C)C)cc1 [Compound 109] — 110-fold lower, 8.2 nM
- CC(C)(C)c1ccc(-c2ccccc2C(=O)Nc2nc(-c3ccc(C(=O)N[C@H](C(=O)NCC4CC4)c4ccccc4)cc3)cs2)cc1 [Compound 81] — 14-fold lower, 61.1 nM
- Cc1cccc(C(=O)NC23CCC(C(=O)N[C@H](C(=O)N(C)Cc4ccc(F)cc4)c4ccccc4)(CC2)CC3)c1-c1ccc(C(C)(C)C)cc1 [Compound 108] — 730-fold lower, 1.2 nM
- CC(C)(C)c1ccc(-c2ccccc2C(=O)NCC23CCC(C(=O)N[C@H](C(=O)N4CCCCC4)c4ccccc4)(CC2)CC3)cc1 [Compound 45] — 8.9-fold lower, 98.2 nM
- CCCCN(C)C(=O)[C@@H](NC(=O)C12CCC(CNC(=O)c3cccc(C)c3-c3ccc(C(C)(C)C)cc3)(CC1)CC2)c1ccccc1 [Compound 74] — 44-fold lower, 19.8 nM
- Cc1cccc(C(=O)NCC23CCC(C(=O)N[C@H](C(=O)NCC(C)C)c4ccccc4)(CC2)CC3)c1-c1ccc(C(C)(C)C)cc1 [Compound 71] — 61-fold lower, 14.2 nM
- CC(C)(C)c1ccc(-c2ccccc2C(=O)NCC23CCC(C(=O)N[C@H](C(=O)NC4CCCC4)c4ccccc4)(CC2)CC3)cc1 [Compound 46] — 5.8-fold lower, 151 nM
- CN(Cc1ccc(F)cc1)C(=O)[C@H](NC(=O)c1nc2ccc(NC(=O)c3ccccc3-c3ccc(C(C)(C)C)cc3)cc2s1)c1ccccc1 [Compound 35] — 89-fold lower, 9.8 nM
- CCCCCNC(=O)[C@@H](NC(=O)c1cccc(-c2csc(NC(=O)c3ccccc3-c3ccc(C(C)(C)C)cc3)n2)c1)c1ccccc1 [Compound 11] — 2.9-fold lower, 296 nM
- CN(Cc1ccc(F)cc1)C(=O)[C@@H](NC(=O)c1nc2ccc(NC(=O)c3ccccc3-c3nc4ccccc4[nH]3)cc2s1)c1ccccc1 [Compound 39] — 3.4-fold lower, 256 nM
- CC(C)CN(C)C(=O)[C@@H](NC(=O)c1ccc(-c2csc(NC(=O)c3ccccc3-c3ccc(C(C)(C)C)cc3)n2)cc1)c1ccccc1 [Compound 91] — 2.1-fold lower, 422 nM
- Cc1noc(-c2ccccc2C(=O)Nc2ccc3nc(C(=O)N[C@H](C(=O)N(C)Cc4ccc(F)cc4)c4ccccc4)sc3c2)n1 [Compound 25] — 15-fold lower, 59.4 nM
- CC(C)(C)c1ccc(-c2ccccc2C(=O)NCC23CCC(C(=O)N[C@H](C(=O)NC4CCCCC4)c4ccccc4)(CC2)CC3)cc1 [Compound 48] — 3.8-fold lower, 230 nM
- CC(C)(C)c1ccc(-c2ccccc2C(=O)Nc2ccc3nc(C(=O)N[C@H](C(=O)N4Cc5ccccc5C4)c4ccccc4)sc3c2)cc1 [Compound 23] — 40-fold lower, 21.6 nM
- Cc1cccc(C(=O)NCC23CCC(C(=O)N[C@H](C(=O)N(C)CC(C)C)c4ccccc4)(CC2)CC3)c1-c1ccc(C(C)(C)C)cc1 [Compound 72] — 40-fold lower, 21.8 nM
- CN(Cc1ccc(F)cc1)C(=O)[C@@H](NC(=O)c1ccc(-c2csc(NC(=O)c3ccccc3-c3ccc(C(C)(C)C)cc3)n2)cc1)c1ccccc1 [Compound 37] — 25-fold lower, 35.3 nM
- CC(C)CN(C)C(=O)[C@@H](NC(=O)C12CCC(NC(=O)c3ccccc3-c3ccc(C(C)C)cc3)(CC1)CC2)c1ccccc1 [Compound 106] — 22-fold lower, 40.2 nM
- CC(C)(C)c1ccc(-c2ccccc2C(=O)Nc2ccc3nc(C(=O)O)sc3c2)cc1 [Compound 18] — 3.1-fold higher, 2700 nM
- CC(C)(C)NC(=O)[C@@H](NC(=O)C12CCC(CNC(=O)c3ccccc3-c3ccc(C(C)(C)C)cc3)(CC1)CC2)c1ccccc1 [Compound 50] — 5.3-fold lower, 165 nM
- CCCN(C)C(=O)[C@@H](NC(=O)c1ccc(-c2csc(NC(=O)c3ccccc3-c3ccc(C(C)(C)C)cc3)n2)cc1)c1ccccc1 [Compound 92] — 7.9-fold lower, 110 nM
- CN(Cc1ccc(F)cc1)C(=O)[C@@H](NC(=O)c1nc2ccc(NC(=O)c3ccccc3-n3cccn3)cc2s1)c1ccccc1 [Compound 31] — 9.4-fold lower, 93.1 nM
- CCCCCNC(=O)[C@@H](NC(=O)c1ccccc1-c1csc(NC(=O)c2ccccc2-c2ccc(C(C)(C)C)cc2)n1)c1ccccc1 [Compound 15] — higher, > 10000 nM
- CN(Cc1ccc(F)cc1)C(=O)[C@@H](NC(=O)c1nc2ccc(NC(=O)c3ccccc3-n3cnnn3)cc2s1)c1ccccc1 [Compound 29] — 4.8-fold higher, 4200 nM
- CC(C)(C)c1ccc(-c2ccccc2C(=O)NCC23CCC(C(=O)N[C@H](C(=O)N4CCCC4)c4ccccc4)(CC2)CC3)cc1 [Compound 20] — 9.2-fold lower, 95 nM
- CCCN(C)C(=O)[C@@H](NC(=O)c1ccc(-c2csc(NC(=O)c3cccc(C)c3-c3ccc(C(C)(C)C)cc3)n2)cc1)c1ccccc1 [Compound 88] — 11-fold lower, 81.3 nM
- O=C(N[C@H](C(=O)NC1CCCCC1)c1ccccc1)c1nc2ccc(NC(=O)c3ccccc3-c3cn4ccsc4n3)cc2s1 [Compound 63] — 11-fold lower, 82 nM
- COc1cccc(C(=O)NC23CCC(C(=O)N[C@H](C(=O)N(C)Cc4ccc(F)cc4)c4ccccc4)(CC2)CC3)c1-c1ccc(C(C)(C)C)cc1 [Compound 110] — 60-fold lower, 14.6 nM
- CC(C)(C)c1ccc(-c2ccccc2C(=O)Nc2ccc(-c3csc(C(=O)N[C@H](C(=O)N4CCCC4)c4ccccc4)n3)cc2)cc1 [Compound 57, (S)-4-(4-(4′-tert-butylbiphenyl-2-ylcarboxamido)phenyl)-N-(2-oxo-1-phenyl-2-(pyrrolidin-1-yl)ethyl)thiazole-2-carboxamide] — 3.2-fold lower, 272 nM
- CC(C)(C)c1csc(-c2ccccc2C(=O)NCC23CCC(C(=O)N[C@H](C(=O)N4CCCC4)c4ccccc4)(CC2)CC3)n1 [Compound 100] — 7.8-fold lower, 112 nM
- CC(C)(C)c1ccc(-c2ccccc2C(=O)Nc2nc(-c3ccccc3C(=O)N[C@H](C(=O)N3CCCC3)c3ccccc3)cs2)cc1 [Compound 16, (S)-4′-tert-butyl-N-(4-(2-(2-oxo-1-phenyl-2-(pyrrolidin-1-yl)ethylcarbamoyl)phenyl)thiazol-2-yl)biphenyl-2-carboxamide] — within 1.5-fold, 1100 nM
- COc1cccc(C(=O)NC23CCC(C(=O)N[C@H](C(=O)N(C)CC(C)C)c4ccccc4)(CC2)CC3)c1-c1ccc(C(C)C)cc1 [Compound 116] — 3.5-fold lower, 247 nM
- CN(Cc1ccc(F)cc1)C(=O)[C@@H](NC(=O)c1cccc(-c2csc(NC(=O)c3ccccc3-c3ccc(C(C)(C)C)cc3)n2)c1)c1ccccc1 [Compound 13] — 3.7-fold lower, 238 nM
- CN(Cc1ccc(F)cc1)C(=O)[C@@H](NC(=O)c1nc2ccc(N)cc2s1)c1ccccc1 [Compound 19] — higher, > 10000 nM
